{
  "source": "patent US12491188B2",
  "about": "“Small molecule PARG inhibitors and methods of use thereof” (Board of Regents, The University of Texas System, priority 2019, dated 2025)",
  "key": {"human PARG": {"molecular_target": "human PARG (Homo sapiens (Human), UniProt Q86W56)", "sequence (Q86W56 389-976)": "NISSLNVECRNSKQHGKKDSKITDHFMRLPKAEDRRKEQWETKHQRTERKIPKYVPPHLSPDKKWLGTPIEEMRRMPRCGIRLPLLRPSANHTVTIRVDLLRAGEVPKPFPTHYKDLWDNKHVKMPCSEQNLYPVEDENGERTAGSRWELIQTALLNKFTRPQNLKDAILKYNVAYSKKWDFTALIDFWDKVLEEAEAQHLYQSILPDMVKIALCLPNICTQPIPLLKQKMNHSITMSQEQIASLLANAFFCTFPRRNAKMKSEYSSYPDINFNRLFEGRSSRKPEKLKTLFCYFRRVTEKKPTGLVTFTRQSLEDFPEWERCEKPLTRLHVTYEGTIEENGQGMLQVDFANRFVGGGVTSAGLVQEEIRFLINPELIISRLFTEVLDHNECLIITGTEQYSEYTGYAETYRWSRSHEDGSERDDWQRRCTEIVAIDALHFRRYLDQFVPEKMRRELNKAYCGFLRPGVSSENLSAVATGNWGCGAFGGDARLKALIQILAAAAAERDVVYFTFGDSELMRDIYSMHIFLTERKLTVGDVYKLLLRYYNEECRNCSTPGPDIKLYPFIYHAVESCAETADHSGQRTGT", "assay": "Gel-based PARG activity assay", "assay_type": "biochemical", "protocol": "FIGS. 9a & 9b show structure-activity relationships (SAR) of compounds from five main chemotypes. (FIG. 9a) A total of 34 representative HTS hits and commercially available analogues from each chemotype (FIG. 7 and FIG. 29) were analyzed using the gel-based PARG activity assay. This gel-based assay directly monitors the change of PARylation status of PARP1 as a substrate of PARG. […] The reaction was quenched after a 30 min incubation at room temperature by adding SDS-PAGE sample buffer. PARylated PARP1C runs as a smear on SDS-PAGE that is reduced to a single band by PARG treatment. […] (FIG. 9b) Quantification of the dose-response PARG inhibition by JA2-3 using the gel-based PARG activity assay. hPARG (1 nM) was preincubated with increasing concentrations (0.032-1 μM) of JA2-3 for 1 hr at room temperature before PARylated PARP1C (500 nM) was added. The reaction was quenched after a 30 min incubation at room temperature. PARylated PARP1C migrates slower than unmodified PARP1C and was quantified using ImageJ. To determine the IC50 value, the dose-response data were plotted as a function of JA2-3 concentration and fitted to the four-parameter logistic equation using SigmaPlot. The rate of the PARG-dependent signal loss in the TR-FRET PAR turnover assay is not equivalent to the steady-state rate of PAR turnover, because the TR-FRET assay can't detect signal loss until the length of PAR chains become shorter than 7 ADP-ribose units. Therefore, the gel-based PARG activity assay to accurately determine the IC50 values throughout the present disclosure.\nGel-based PARG activity assay. PARP1C (2 μM) is enzymatically auto-modified in a reaction containing the PARP1 DBD (2 μM), a 24 mer nicked DNA oligo (2 μM), and NAD+(300 μM) for 1 hr at 37° C., as described previously (Kim et al., 2012). Human PARG^389-976 (1 nM) was pre-incubated with compounds for 1 hr at room temperature. The reaction was initiated by addition of PARylated PARP1 (final concentration of 500 nM) and quenched after 30 min incubation at room temperature by adding SDS-PAGE sample buffer. The gel was visualized by sypro-ruby staining (Kim et al., 2012) and the retained PARylated PARP1C species were quantified using ImageJ (Schneider et al., 2012).\nPARylated PARP1C that migrates slower than unmodified PARP1C was quantified. […] The IC50 values were determined by fitting the dose-response data for each compound to a four-parameter logistic equation using SigmaPlot (Systat Software Inc.).\nTo test specificity of JA2131, human PARG^389-976 (1 nM) was pre-incubated with JA2131 (5, 10, and 20 μM) in the presence and absence of 0.1% Triton-X 100 or 0.1 mg/ml BSA for 1 hr at room temperature. The reaction was initiated, quenched, visualized, and quantified as described above."}, "[1]": {"system": "PC3, MDA-MB-231 and MCF-7 cell lines", "assay": "Clonogenic cell-survival assay", "assay_type": "cell-based, human", "settings": "10 μM, 2 hours, 3 Gy IR, 2-3 weeks", "protocol": "FIGS. 14a-c show selective inhibition of PARG by xanthine derivative JA2131. (FIG. 14a) PARG knockdown MDA-MB-231 cells were treated with 5 μM JA2131 or PDD for two hours, lysed and total lysates were immunoblotted for anti-PAR (upper panel) followed by anti-PARG (upper middle), anti-PARP1 (lower middle) and anti-actin (bottom). (FIG. 14b) Clonogenic assay radiation dose determination for MDA-MB-231, MCF-7 and PC3 cells. 500 cells were exposed to indicated dose of radiation and colonies were allowed to form for each cell-lines. The surviving colonies from each group were counted and normalized against non-irradiated. The results of three independent experiments are shown here. Error bars=SEM. (FIG. 14c) Clonogenic survival assays of PC3, MDA MB231 and MCF-7 cells treated with PARGi. 500 cells were treated with either DMSO or 10 μM JA2131 for 2 hours, irradiated 3Gy ionizing radiation and grown for approximately 2-3 weeks, then colonies were fixed methanol and stained with crystal violet. Cells were analysed as above. The results of three independent experiments are shown here. Error bars=SEM.\nCell culture. […] Cells were fixed with methanol (100%), stained with crystal violet and analyzed using a GelCount instrument (Oxford Optronix Ltd). […]"}, "[2]": {"system": "MDA-MB-231 control and PARG-KD cells", "assay": "Sulforhodamine B (SRB) cytotoxicity, control vs PARG-KD cells", "assay_type": "cell-based, human", "settings": "72 h", "from_the_text": "Sulforhodamine B (SRB) Cytotoxicity Assay."}},
  "data": [
    {"smiles": "O=C1C(Cl)=C(Cl)C(Cl)(Cl)C(Cl)=C1Cl", "note": "[JA2131]", "values": [
      {"measurement": "effect of detergent or non-specific protein on PARG inhibitory potency", "setting": "human PARG; 0.1% Triton-X 100 or 0.1 mg/ml BSA, JA2131 5, 10, 20 μM", "value": "Neither the addition of Triton-X 100 nor BSA significantly altered the inhibitory potency"},
      {"measurement": "IC50 of PARG inhibition", "setting": "human PARG; hPARG 1 nM, PARylated PARP1C 500 nM", "value": "sub-micromolar"},
      {"measurement": "IC50", "setting": "human PARG; hPARG 1 nM, PARylated PARP1C 500 nM, read-out: IC50 of PARG inhibition", "value": 400, "unit": "nM"},
      {"measurement": "increase in potency of JA2131 (6′-thiocarbonyl) in comparison to JA2120 (6′-carbonyl)", "setting": "human PARG; ratio of IC50 values", "value": "more than 50 fold"},
      {"measurement": "colony formation", "setting": "[1]", "value": "inhibits colony formation in all three cell lines"},
      {"measurement": "IC50 value for PARG-depleted cells compared to control cells", "setting": "[2]", "value": "~10", "unit": "fold"},
      {"measurement": "PARG-KD cells that responded to the PARGi", "setting": "[2]", "value": 50, "unit": "%"}
    ]}
  ]
}
